The values below come from patent US9617256B2 (priority 2007, dated 2017).

In brackets after ≈: the same amount, converted by molar mass. Read-outs that look alike come from different tables or passages of the source.

Assay [1] concerns AECO063 (ATCC25922 bearing an acrAB mutation). As to the kind of experiment: microbe, parasite or virus in culture. Type of assay: cell-based, E. coli. The note with it: Escherichia coli, ATCC25922, read-out: MIC AECO063. Summed up: (§1)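 Inocula prepared from 0.5 McFarland suspensions (final 3×10^5–7×10^5 CFU/mL) were added to 2-fold drug dilution series in cation-adjusted Mueller-Hinton broth. Plates stood 18-24 hours at 35° C. under ambient air.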

Assay [2] has as its system APAE001 (ATCC27853). As to the kind of experiment: MIC broth microdilution, APAE001. It counts as cell-based, P. aeruginosa. The conditions noted are these: Pseudomonas aeruginosa, ATCC27853, read-out: MIC APAE001, APAE001 (ATCC27853). The method in brief:
as §1

The test system of assay [3] is AECO001 (ATCC25922). The assay is described as follows: MIC broth microdilution, AECO001. Type of assay: cell-based, E. coli. The conditions noted are these: Escherichia coli. Summed up:
as §1
On the technique in general: In broth dilution the organism is exposed to a series of concentrations in liquid medium.

Assay [4] concerns ASAU001 (laboratory strain of S. aureus, ATCC29213). As to the kind of experiment: MIC broth microdilution, ASAU001. Type of assay: cell-based. The note with it: Staphylococcus aureus, ATCC29213, read-out: MIC ASAU001. The method in brief:
as §1

In assay [5] the test system is APAE006 (strain of P. aeruginosa in which all efflux pumps are inactivated). The assay is described as follows: microbe, parasite or virus in culture. Type of assay: cell-based. The note with it: Pseudomonas aeruginosa, read-out: MIC APAE006, APAE006, all efflux pumps inactivated. Summed up:
(§2)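 Strains were grown overnight at 35° C. on Mueller-Hinton agar, suspended to 0.5 McFarland and diluted to a final 3×10^5–7×10^5 CFU/mL. They were then exposed to 2-fold serial drug dilutions in cation-adjusted Mueller-Hinton broth and incubated 18-24 hours at 35° C.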

For assay [6], the system named is APAE006 in the presence of 8 micrograms per milliliter of polymyxin B nonapeptide. It counts as cell-based, P. aeruginosa. The note with it: APAE006 with 8 micrograms per milliliter polymyxin B nonapeptide. Summed up:
as §2

The subject of assay [7] is AABA1060 (clinical isolate of Acinetobacter baumannii). As to the kind of experiment: MIC broth microdilution, AABA1060. It counts as cell-based. The conditions noted are these: Acinetobacter baumannii, read-out: MIC AABA1060. Summed up:
as §1

[8] abbreviates: ATCC25922, read-out: MIC AECO001.
Setting [9] is: ATCC25922, read-out: MIC AECO001 HSA AGP.

Take `CC(C)C#CC#Cc1ccc(C(=O)NC(C(=O)NO)[C@@H](C)N)cc1` (stereo partly shown) [Example 91-13]: the MIC in assay [1] is less than 2 µg/mL; in assay [2], less than 2 µg/mL; in assay [3] (setting [8]), less than 2 µg/mL; in assay [3] (setting [9]), 2 to 16 µg/mL (≈ 6.11 to 48.9 µM); in assay [4] it was 2 to 16 µg/mL (≈ 6.11 to 48.9 µM); in assay [5], less than 2 µg/mL. Moreover, the MIC in assay [7] lay within 2 to 16 µg/mL (≈ 6.11 to 48.9 µM). Besides, the “MIC APAE006 + PMBN” value in assay [6] was “A (MIC's of 2.0 μg/mL or less = A)”.
Turning to `O=C(NC(C(=O)NO)C1(O)CC1)c1ccc(C#CC#CC2CC2)cc1` (stereo not shown) [Example 94-1, 4-(cyclopropylbuta-1,3-diynyl)-N-(2-(hydroxyamino)-1-(1-hydroxycyclopropyl)-2-oxoethyl)benzamide], the MIC in assay [1] was less than 2 µg/mL; in assay [2], less than 2 µg/mL; in assay [3] (setting [8]) it was less than 2 µg/mL; in assay [3] (setting [9]), 2 to 16 µg/mL (≈ 5.91 to 47.3 µM); in assay [4], 16 to 64 µg/mL (≈ 47.3 to 189 µM); in assay [5], less than 2 µg/mL. For the same compound, in assay [7], the MIC was 2 to 16 µg/mL (≈ 5.91 to 47.3 µM). In assay [6], the “MIC APAE006 + PMBN” value is listed as “A (MIC's of 2.0 μg/mL or less = A)”.
For `CC(C)(N)[C@H](NC(=O)c1ccc(C#CC#Cc2ccc(CNC3CC3)cc2)cc1)C(=O)NO` [Example 87-4], the MIC is less than 2 µg/mL in assay [1]; less than 2 µg/mL in assay [2]; less than 2 µg/mL in assay [3] (setting [8]); 2 to 16 µg/mL (≈ 4.5 to 36 µM) in assay [3] (setting [9]); 16 to 64 µg/mL (≈ 36 to 144 µM) in assay [4]; less than 2 µg/mL in assay [5]. The MIC in assay [7] was less than 2 µg/mL. In assay [6], the “MIC APAE006 + PMBN” value is “A (MIC's of 2.0 μg/mL or less = A)”.
Turning to `CCOCc1ccc(C#Cc2ccc(C(=O)NC(C(=O)NO)C(C)(C)N)cc2)cc1` (stereo not shown) [Compound 126-2], the MIC in assay [1] is less than 2 µg/mL; in assay [2] it was 2 to 16 µg/mL (≈ 4.88 to 39.1 µM); in assay [3] (setting [8]) it was less than 2 µg/mL; in assay [3] (setting [9]), less than 2 µg/mL; in assay [4], 16 to 64 µg/mL (≈ 39.1 to 156 µM); in assay [5], less than 2 µg/mL. In assay [7], the MIC is less than 2 µg/mL. For the same compound, the “MIC APAE006 + PMBN” value in assay [6] is reported as “A (MIC's of 2.0 μg/mL or less = A)”.
Turning to `CC(C)(O)[C@H](NC(=O)c1ccc(C#Cc2ccccc2)cc1)C(=O)NO` [Example 133-14], the MIC in assay [1] is less than 2 µg/mL; in assay [2] it was 2 to 16 µg/mL (≈ 5.68 to 45.4 µM); in assay [3] (setting [8]), less than 2 µg/mL; in assay [3] (setting [9]), less than 2 µg/mL; in assay [4], 16 to 64 µg/mL (≈ 45.4 to 182 µM); in assay [5] it was less than 2 µg/mL. For the same compound, the MIC in assay [7] was less than 2 µg/mL. Also, the “MIC APAE006 + PMBN” value in assay [6] is given as “A (MIC's of 2.0 μg/mL or less = A)”.
For the compound `C[C@H](C#CC#Cc1ccc(C(=O)N[C@H](C(=O)NO)[C@@H](C)N)cc1)N1CCOCC1` [Example 92-1, N-((2S,3R)-3-amino-1-(hydroxyamino)-1-oxobutan-2-yl)-4-((R)-5-morpholinohexa-1,3-diynyl)benzamide], the MIC in assay [1] was 2 to 16 µg/mL (≈ 5.02 to 40.2 µM); in assay [2], 2 to 16 µg/mL (≈ 5.02 to 40.2 µM); in assay [3] (setting [8]) it was 2 to 16 µg/mL (≈ 5.02 to 40.2 µM); in assay [3] (setting [9]) it was 16 to 64 µg/mL (≈ 40.2 to 161 µM); in assay [4], 16 to 64 µg/mL (≈ 40.2 to 161 µM); in assay [5] it was less than 2 µg/mL. The MIC in assay [7] fell in the range of 16 to 64 µg/mL (≈ 40.2 to 161 µM). In addition, the “MIC APAE006 + PMBN” value in assay [6] is reported as “A (MIC's of 2.0 μg/mL or less = A)”.
As to `C[C@@H](N)[C@H](NC(=O)c1ccc(C#CC#C[C@H](C)N2CCOCC2)cc1)C(=O)NO` [Example 92-2, N-((2S,3R)-3-amino-1-(hydroxyamino)-1-oxobutan-2-yl)-4-((S)-5-morpholinohexa-1,3-diynyl)benzamide], the MIC in assay [1] lay within 2 to 16 µg/mL (≈ 5.02 to 40.2 µM); in assay [2], 16 to 64 µg/mL (≈ 40.2 to 161 µM); in assay [3] (setting [8]), 16 to 64 µg/mL (≈ 40.2 to 161 µM); in assay [3] (setting [9]), 16 to 64 µg/mL (≈ 40.2 to 161 µM); in assay [4], 16 to 64 µg/mL (≈ 40.2 to 161 µM); in assay [5], 2 to 16 µg/mL (≈ 5.02 to 40.2 µM). Moreover, in assay [7], the MIC is 16 to 64 µg/mL (≈ 40.2 to 161 µM). For the same compound, the “MIC APAE006 + PMBN” value in assay [6] was “B (MIC's of greater than 2.0 μg/mL to 16.0 μg/mL = B)”.
For the compound `C[C@@H](N)[C@H](NC(=O)c1ccc(C#CC2CC2c2ccccc2)cc1)C(=O)NO` (stereo partly shown) [Example 134-2], the MIC in assay [1] is 2 to 16 µg/mL (≈ 5.3 to 42.4 µM); in assay [2], 2 to 16 µg/mL (≈ 5.3 to 42.4 µM); in assay [3] (setting [8]), 2 to 16 µg/mL (≈ 5.3 to 42.4 µM); in assay [3] (setting [9]) it was 16 to 64 µg/mL (≈ 42.4 to 170 µM); in assay [4], 16 to 64 µg/mL (≈ 42.4 to 170 µM); in assay [5], less than 2 µg/mL. Further, in assay [7], the MIC is 2 to 16 µg/mL (≈ 5.3 to 42.4 µM). In addition, the “MIC APAE006 + PMBN” value in assay [6] was “A (MIC's of 2.0 μg/mL or less = A)”.
